Measured values: patent US11530244B2, “Cyclic polypeptides for PCSK9 inhibition” (priority 2018, dated 2022)
Starred links: 1 amine or outer side, 2 acyl side, 3 side chain; linkers in the order of their positions; H or OH if unused. Positions of bridges follow the written chain, without caps; N, C: chain ends. Non-standard residues stand in square brackets, D forms with d. Residues, ends and D or L forms follow the SMILES beside them. ξ: configuration not given here. Phe(3-CH2NH2) = O=C([C@H](Cc1cccc(CN[*:3])c1)N[*:1])[*:2]; X61 = O=C(CCCCC(=O)[*:1])NCc1ccc(CC(=O)[*:2])cc1; Ala(imidazol-2-yl) = N[C@@H](Cc1ncc[nH]1)C(=O)O; Trp(5-F) = N[C@@H](Cc1c[nH]c2ccc(F)cc12)C(=O)O; Phe(4-CH2NH2) = NCc1ccc(C[C@H](N)C(=O)O)cc1; X33 = CC(C)C(N[*:1])c1ncc(C(=O)[*:2])[nH]1; mXylylene(5-F) = Fc1cc(C[*:1])cc(C[*:2])c1; Heptanedioyl = O=C(CCCCCC(=O)[*:2])[*:1]; Lys(Me3) = C[N+](C)(C)CCCC[C@H](N)C(=O)O; Pro(cis-4-F) = O=C(O)[C@@H]1C[C@H](F)CN1; X4 = O=C(CCSCc1cccc(CSCCN[*:1])c1)[*:2]; mXylylene = c1cc(C[*:1])cc(C[*:2])c1; AEF = NCCOc1ccc(C[C@H](N)C(=O)O)cc1; Adipoyl = O=C(CCCCC(=O)[*:2])[*:1]; Glutaryl = O=C(CCCC(=O)[*:2])[*:1]; Lys(Me2) = CN(C)CCCC[C@H](N)C(=O)O; ξAla(CF3) = NC(CC(F)(F)F)C(=O)O; X59 = Fc1ccc(C[*:2])cc1C[*:1]; αMeP = C[C@@]1(C(=O)O)CCCN1; 3Amb = NCc1cccc(C(=O)O)c1; Dab = NCC[C@H](N)C(=O)O; Dap = NC[C@H](N)C(=O)O; X2 = O=C(C[*:2])[*:1]; AEA = NCCOCC(=O)O; Mpa = O=C(O)CCS

Molecular target: PCSK9 (Homo sapiens (Human), UniProt Q8NBP7)
Assay: PCSK9 Alexa FRET Standard assay (displacement of AlexaFluor647 tagged cyclic peptide Reagent A)
Assay type: binding
Conditions: PCSK9 Alexa FRET Standard assay, 0.5 nM PCSK9, 20 nM AF cyclic peptide Reagent A; read-out: IC50
Experimental: A solution containing 1 nM biotinylated PCSK9+2.5 nM Lance Streptavidin Europium (Strep-Eu) was made in 50 mM HEPES pH 7.4, 0.15 M NaCl, 5 mM CaCl2), 0.01% BSA, and 0.01% Surfactant P20. A separate solution containing 40 nM of the AlexaFluor tagged cyclic peptide was made in the same buffer system. An Echo was used to transfer 0.750 ul of compound to an assay plate followed by the addition of 15 ul of PCSK9+Stept-Eu and 15 ul of AF peptide. The final assay volume was 30.750 ul containing 0.5 nM PCSK9, 1.25 nM Strep-Eu, and 20 nM AF cyclic peptide. The reaction was incubated at room temperature for at least two hours prior to fluorescence measurements using an Envision Multilabel Reader. IC50 values were determined by fitting data to a sigmoidal dose-response curve using nonlinear regression. Ki was then calculated from the IC50 and the KD of AF cyclic peptide. Counts (B-counts) of the europium-labeled PCSK9 were followed to observe if compounds were […]. A fall off of the B-counts likely indicated a false positive of inhibition. Data from this procedure was reported as “A=‘numerical value’ (nanomolar)”

PCSK9, sequence (Q8NBP7 153-692): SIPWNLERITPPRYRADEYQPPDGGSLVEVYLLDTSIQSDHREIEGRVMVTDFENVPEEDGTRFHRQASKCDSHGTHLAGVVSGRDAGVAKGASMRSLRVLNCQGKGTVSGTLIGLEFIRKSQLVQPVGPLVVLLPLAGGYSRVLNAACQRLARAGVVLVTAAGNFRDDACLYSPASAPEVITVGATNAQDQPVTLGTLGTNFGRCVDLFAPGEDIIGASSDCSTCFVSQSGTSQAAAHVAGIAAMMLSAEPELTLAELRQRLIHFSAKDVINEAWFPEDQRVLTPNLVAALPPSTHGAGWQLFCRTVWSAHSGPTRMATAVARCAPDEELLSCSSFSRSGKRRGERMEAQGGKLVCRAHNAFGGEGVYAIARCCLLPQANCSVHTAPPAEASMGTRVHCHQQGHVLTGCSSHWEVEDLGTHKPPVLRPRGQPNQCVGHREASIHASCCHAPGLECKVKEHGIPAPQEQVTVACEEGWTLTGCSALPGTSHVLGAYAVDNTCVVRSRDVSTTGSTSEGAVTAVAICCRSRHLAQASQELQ

`COc1ccc(C[C@@H]2NC(=O)[C@H](Cc3cnc[nH]3)NC(=O)[C@H](CC(=O)O)NC(=O)[C@H](Cc3c[nH]c4ccc(F)cc34)NC(=O)[C@H](Cc3c[nH]c4ccc(F)cc34)NC(=O)[C@@H](C)NC(=O)CCCCC(=O)NCc3ccc(cc3)CC(=O)NC[C@@H](C(N)=O)NC(=O)[C@]3(C)CCCN3C2=O)cc1` [Compound 412] ([dA][Trp(5-F)][Trp(5-F)]DHY(Me)[αMeP][Dap]-NH2; linker N-8 via X61) was tested. Which IC50 did it give?
The IC50 was 1 to 12.1 µM.

`COc1ccc(C[C@@H]2NC(=O)[C@H]([C@@H](C)O)NC(=O)[C@@H]3C[C@H](F)CN3C(=O)[C@H](Cc3c[nH]c4ccc(F)cc34)NC(=O)[C@H](Cc3c[nH]c4ccc(F)cc34)NC(=O)[C@@H](C)NC(=O)CCCCCC(=O)NCc3ccc(cc3)C[C@@H](C(N)=O)NC(=O)[C@]3(C)CCCN3C2=O)cc1` [Compound 125] ([dA][Trp(5-F)][Trp(5-F)][Pro(cis-4-F)]TY(Me)[αMeP][Phe(4-CH2NH2)]-NH2; linker N-8 via Heptanedioyl) was tested. Which IC50 did it give?
Its IC50 is 21 to 50 µM.

For `COc1ccc(C[C@@H]2NC(=O)[C@H](Cc3ncc[nH]3)NC(=O)[C@H](CC(=O)O)NC(=O)[C@H](Cc3c[nH]c4ccc(F)cc34)NC(=O)[C@H](Cc3c[nH]c4ccc(F)cc34)NC(=O)[C@@H](C)NC(=O)[C@H](CCCCN(C)C)NC(=O)CCSCc3cccc(c3)CSCCNC(=O)[C@]3(C)CCCN3C2=O)cc1` [Compound 464] (cyclo(D[Ala(imidazol-2-yl)]Y(Me)[αMeP][X4][Lys(Me2)][dA][Trp(5-F)][Trp(5-F)])), which IC50 is on record?
The IC50 was 21 to 50 µM.

Which IC50 does the source give for `COc1ccc(C[C@@H]2NC(=O)[C@H]([C@@H](C)O)NC(=O)[C@@H]3C[C@H](F)CN3C(=O)[C@H](Cc3c[nH]c4ccc(F)cc34)NC(=O)[C@H](Cc3c[nH]c4ccc(F)cc34)NC(=O)[C@@H](C)NC(=O)[C@H](CCCCN)NC(=O)[C@@H](NC(C)=O)CCNC(=O)COc3ccc(cc3)C[C@@H](C(N)=O)NC(=O)[C@]3(C)CCCN3C2=O)cc1` [Compound 075] (Ac-[Dab]K[dA][Trp(5-F)][Trp(5-F)][Pro(cis-4-F)]TY(Me)[αMeP]Y-NH2; linker 1-10 via X2) here?
The IC50 was 21 to 50 µM.

For `CC(C)C1NC(=O)CCSCc2cccc(c2)CSC[C@@H](C(N)=O)NC(=O)[C@]2(C)CCCN2C(=O)[C@H](Cc2ccc(O)cc2)NC(=O)[C@H](Cc2c[nH]cn2)NC(=O)[C@H](CC(=O)O)NC(=O)[C@H](Cc2c[nH]c3ccc(F)cc23)NC(=O)[C@H](Cc2c[nH]c3ccc(F)cc23)NC(=O)c2cnc1[nH]2` (stereo partly drawn) [Compound 450] ([Mpa][X33][Trp(5-F)][Trp(5-F)]DHY[αMeP]C-NH2; linker 1-9 via mXylylene), which IC50 is on record?
The IC50 was 0.1 to 1 µM.

With `COc1ccc(C[C@@H]2NC(=O)[C@H](Cc3ncc[nH]3)NC(=O)[C@H](CC(=O)O)NC(=O)[C@H](Cc3c[nH]c4ccc(F)cc34)NC(=O)[C@H](Cc3c[nH]c4ccc(F)cc34)NC(=O)[C@@H](C)NC(=O)C(CC(F)(F)F)NC(=O)CCSCc3cccc(c3)CSCCNC(=O)[C@]3(C)CCCN3C2=O)cc1` (stereo partly drawn) [Compound 443] (cyclo(D[Ala(imidazol-2-yl)]Y(Me)[αMeP][X4][ξAla(CF3)][dA][Trp(5-F)][Trp(5-F)])) as the molecule, how does the IC50 read?
The IC50 was 21 to 50 µM.

`CC[C@H](C)[C@@H]1NC(=O)[C@@H]2CCCN2C(=O)[C@H](Cc2c[nH]c3ccc(F)cc23)NC(=O)[C@H](Cc2c[nH]c3ccc(F)cc23)NC(=O)[C@@H](C)NC(=O)[C@H](CCCCN)NC(=O)CCSCc2cc(F)cc(c2)CSC[C@@H](C(N)=O)NC(=O)[C@]2(C)CCCN2C(=O)[C@H](Cc2ccc(OC)cc2)NC1=O` [Compound 008] ([Mpa]K[dA][Trp(5-F)][Trp(5-F)]PIY(Me)[αMeP]C-NH2; linker 1-10 via mXylylene(5-F)) was tested. Which IC50 did it give?
The IC50 was 21 to 50 µM.

`C[C@@]12CCCN1C(=O)[C@H](Cc1ccc(O)cc1)NC(=O)CN1C(=O)[C@H](CCc3ccccc31)NC(=O)[C@H](Cc1c[nH]c3ccc(F)cc13)NC(=O)[C@H](Cc1c[nH]c3ccc(F)cc13)NC(=O)CNC(=O)[C@H](CCCCN)NC(=O)CCSCc1cccc(c1)CSC[C@@H](C(N)=O)NC2=O` [Compound 110] was tested. Which IC50 did it give?
Its IC50 is 21 to 50 µM.

For `COc1ccc(C[C@@H]2NC(=O)[C@H]([C@@H](C)O)NC(=O)[C@@H]3CCCN3C(=O)[C@H](Cc3c[nH]c4ccc(F)cc34)NC(=O)[C@H](Cc3c[nH]c4ccc(F)cc34)NC(=O)[C@@H](C)NC(=O)[C@H](CCCCN)NC(=O)CCSCc3cc(ccc3F)CSC[C@@H](C(N)=O)NC(=O)[C@]3(C)CCCN3C2=O)cc1` [Compound 069] ([Mpa]K[dA][Trp(5-F)][Trp(5-F)]PTY(Me)[αMeP]C-NH2; linker 1-10 via X59), which IC50 is on record?
Its IC50 is 21 to 50 µM.

How did the IC50 turn out when `COc1ccc(C[C@@H]2NC(=O)[C@H](Cc3cnc[nH]3)NC(=O)[C@H](CC(=O)O)NC(=O)[C@H](Cc3c[nH]c4ccc(F)cc34)NC(=O)[C@H](Cc3c[nH]c4ccc(F)cc34)NC(=O)[C@@H](C)NC(=O)[C@H](CCCC[N+](C)(C)C)NC(=O)CCSCc3cccc(c3)CSCCNC(=O)[C@]3(C)CCCN3C2=O)cc1` [Compound 461] (cyclo(DHY(Me)[αMeP][X4][Lys(Me3)][dA][Trp(5-F)][Trp(5-F)])) was run?
Its IC50 is 21 to 50 µM.

Which IC50 does the source give for `COc1ccc(C[C@@H]2NC(=O)[C@H](Cc3cnc[nH]3)NC(=O)[C@H](CC(=O)O)NC(=O)[C@H](Cc3c[nH]c4ccc(F)cc34)NC(=O)[C@H](Cc3c[nH]c4ccc(F)cc34)NC(=O)[C@@H](C)NC(=O)[C@H](CNC(=O)COCCN)NC(=O)CCSCc3cccc(c3)CSCCNC(=O)[C@]3(C)CCCN3C2=O)cc1` [Compound 424] (cyclo(DHY(Me)[αMeP][X4][Dap](AEA)[dA][Trp(5-F)][Trp(5-F)])) here?
The IC50 was 0.00011 to 0.1 µM.

Which IC50 does the source give for `C[C@@]12CCCN1C(=O)[C@H](Cc1ccc(O)cc1)NC(=O)c1cccc(c1)CNC(=O)[C@H](Cc1c[nH]c3ccc(F)cc13)NC(=O)[C@H](Cc1c[nH]c3ccc(F)cc13)NC(=O)CNC(=O)[C@H](CCCCN)NC(=O)CCSCc1cccc(c1)CSC[C@@H](C(N)=O)NC2=O` [Compound 088] ([Mpa]KG[Trp(5-F)][Trp(5-F)][3Amb]Y[αMeP]C-NH2; linker 1-9 via mXylylene) here?
The IC50 was 0.1 to 1 µM.

Which IC50 does the source give for `COc1ccc(C[C@@H]2NC(=O)[C@H](Cc3cnc[nH]3)NC(=O)[C@H](CC(=O)O)NC(=O)[C@H](Cc3c[nH]c4ccc(F)cc34)NC(=O)[C@H](Cc3c[nH]c4ccc(F)cc34)NC(=O)[C@@H](C)NC(=O)CCCCC(=O)NCCOc3ccc(cc3)C[C@@H](C(N)=O)NC(=O)[C@]3(C)CCCN3C2=O)cc1` [Compound 410] ([dA][Trp(5-F)][Trp(5-F)]DHY(Me)[αMeP][AEF]-NH2; linker N-8 via Adipoyl) here?
Its IC50 is 1 to 12.1 µM.

For `COc1ccc(C[C@@H]2NC(=O)[C@H]([C@@H](C)O)NC(=O)[C@@H]3C[C@H](F)CN3C(=O)[C@H](Cc3c[nH]c4ccc(F)cc34)NC(=O)[C@H](Cc3c[nH]c4ccc(F)cc34)NC(=O)[C@@H](C)NC(=O)[C@H](CCCCN)NC(=O)[C@@H](NC(C)=O)CC(=O)NCc3cccc(c3)C[C@@H](C(N)=O)NC(=O)[C@]3(C)CCCN3C2=O)cc1` [Compound 077] (Ac-DK[dA][Trp(5-F)][Trp(5-F)][Pro(cis-4-F)]TY(Me)[αMeP][Phe(3-CH2NH2)]-NH2; lactam 1-10), which IC50 is on record?
Its IC50 is 21 to 50 µM.

`COc1ccc(C[C@@H]2NC(=O)[C@H]([C@@H](C)O)NC(=O)[C@@H]3C[C@H](F)CN3C(=O)[C@H](Cc3c[nH]c4ccc(F)cc34)NC(=O)[C@H](Cc3c[nH]c4ccc(F)cc34)NC(=O)[C@@H](C)NC(=O)CCCC(=O)NCCOc3ccc(cc3)C[C@@H](C(N)=O)NC(=O)[C@]3(C)CCCN3C2=O)cc1` [Compound 081] ([dA][Trp(5-F)][Trp(5-F)][Pro(cis-4-F)]TY(Me)[αMeP][AEF]-NH2; linker N-8 via Glutaryl) was tested. Which IC50 did it give?
The IC50 was 0.1 to 1 µM.
